Counter-ions that a name gives are not always drawn. Like-named read-outs stand apart in the source and are kept apart here.
How the values were obtained:
Assay type in all cases: physicochemical
[1] = Kinetic solubility test in water and bio-relevant media (SGF, FaSSIF, FeSSIF); settings: for Purity (%), area percentage of API: for reference only (suspensions); for FC: form change: residual solids by XRPD; for pH: supernatant
Method in brief: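 Solids (~1 mg/mL loading as freeform) rolled at 25 rpm, 37° C in water, SGF (pH 1.8), FaSSIF (pH 6.5) or FeSSIF (pH 5.0). Sampled at 1, 4 and 24 h, centrifuged and filtered (0.45 μm PTFE). Supernatant concentration by HPLC, with pH measured; residual solids checked by XRPD.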

[2] = Solid stability evaluation (II/II), HPLC in triplicate
Method: The chemical stability of 1:1 Compound II Citrate Salt (Form A) and 1:1 Compound II Tris Salt (Form B) was further evaluated at solid state, samples were stored under the ambient condition or 40° C./75% RH for 1 day and 3 days, respectively.

[3] = Solution stability evaluation in SGF (pH 1.8) and pH 8.0 buffer at RT; settings: for Purity (% area) / pH / Purity vs. Initial (%): 0.01 mg/mL
Method: Weigh 100 mg of sodium chloride and 50 mg of Triton X-100 into a 50-mL volumetric flask. Add appropriate volume of purified water and sonicate until all solids are completely dissolved. Add about 68 μL of 12 M HCl and sufficient purified water closely to the target volume and adjust to pH 1.8. Dilute to volume with purified water, mix well and check the pH with a pH meter.
Add sufficient purified water closely to the target volume and adjust to pH 8.0. Dilute to volume with purified water, mix well and check the pH with a pH meter. […]
Solution stability was evaluated for 1:1 Compound II Citrate Salt (Form A) and 1:1 Compound II Tris Salt (Form B) in SGF (pH 1.8) and pH 8.0 buffer at RT. Clear solutions were prepared at two concentrations (0.01 mg/mL, 0.05 mg/mL) and then placed at RT for 6 hours, 1/5 days or 6 hours, 1/3/7 days. […] The HPLC purity and pH value were tested and the results were summarized from Table 7-3-1 to Table 7-3-4.

[4] = pH 8.0 (50 mM phosphate), Initial
[5] = pH 8.0 (50 mM phosphate), RT, 6 hours
[6] = pH 8.0 (50 mM phosphate), RT, 1 day
[7] = pH 8.0 (50 mM phosphate), RT, 5 days

In the case of `O=C(O)c1ccc2nc(CN3CC=C(c4cccc(OCc5ccc(Cl)cc5F)c4)CC3)n(C[C@@H]3CCO3)c2c1` [Tris salt Form A, (S)-2-((4-(3-((4-chloro-2-fluorobenzyl)-oxy)phenyl)-3,6-dihydropyridin-1(2H)-yl)methyl)-1-(oxetan-2-ylmethyl)-1H-benzo[d]-imidazole-6-carboxylic acid], the “Purity (%), area percentage of API” value ([1]; FaSSIF, 1 hour) is reported as 92.63%, the “S: solubility” value ([1]; FaSSIF, 4 hours, 37° C.) is reported as 10 µg/mL and the “S: solubility” value ([1]; FaSSIF, 24 hours, 37° C.) is reported as 10 µg/mL. The “Purity (%), area percentage of API” value ([1]; FaSSIF, 24 hours) was 58.70%, the “Purity (%), area percentage of API” value ([1]; FeSSIF, 1 hour) was 94.61% and the “S: solubility” value ([1]; FeSSIF, 4 hours, 37° C.) was 200 µg/mL. The “Purity (%), area percentage of API” value ([1]; FeSSIF, 4 hours) was 81.75%, the “S: solubility” value ([1]; FeSSIF, 24 hours, 37° C.) was 30 µg/mL and the “Purity (%), area percentage of API” value ([1]; FeSSIF, 24 hours) was 43.32%. For the same compound, the “S: solubility” value ([1]; H2O, 1 hour, 37° C.) was 100 µg/mL, the “Purity (%), area percentage of API” value ([1]; H2O, 1 hour) was 96.74% and the “S: solubility” value ([1]; H2O, 4 hours, 37° C.) was 100 µg/mL. The “Purity (%), area percentage of API” value ([1]; H2O, 4 hours) was 89.77%, the “Purity (%), area percentage of API” value ([1]; H2O, 24 hours) was 60.35% and the “Solubility in H2O, comparison in words” value ([1]; H2O, compared with the other tested materials) was “better solubility”. The solubility at 1 h ([1]; SGF, 37 °C, pH 1.8, simulated gastric fluid, thermodynamic from solid, SGF, 1 hour, 37° C., read-out: S: solubility) was 400 µg/mL, the solubility at 4 h ([1]; SGF, 37 °C, pH 1.8, simulated gastric fluid, thermodynamic from solid, SGF, 4 hours, 37° C., read-out: S: solubility) was 400 µg/mL and the solubility at 24 h ([1]; SGF, 37 °C, pH 1.8, simulated gastric fluid, thermodynamic from solid, SGF, 24 hours, 37° C., read-out: S: solubility) was 500 µg/mL. For the same compound, the “Purity (%), area percentage of API” value ([1]; SGF, 1 hour) was 93.12%, the “Purity (%), area percentage of API” value ([1]; SGF, 4 hours) was 93.05% and the “Purity (%), area percentage of API” value ([1]; SGF, 24 hours) was 89.49%. The “Form change in SGF, in words” value ([1]; SGF, XRPD after solubility test) was “Form change was observed”, the “FC: form change” value ([1]; FaSSIF, 24 hours) was “No” and the “FC: form change” value ([1]; SGF, 1 hour) was “Yes”. The “FC: form change” value ([1]; SGF, 4 hours) was “Yes”, the “FC: form change” value ([1]; SGF, 24 hours) was “Yes” and the pH ([1]; FaSSIF, 4 hours) was 6.6. It also gave a pH ([1]; FaSSIF, 24 hours) of 6.6, a pH ([1]; FeSSIF, 1 hour) of 5.1 and a pH ([1]; H2O, 1 hour) of 8.0. For the same compound, the pH ([1]; H2O, 4 hours) was 8.2, the pH ([1]; H2O, 24 hours) was 8.4 and the pH ([1]; SGF, 1 hour) was 1.9. For the same compound, the pH ([1]; SGF, 4 hours) was 2.0, the pH ([1]; SGF, 24 hours) was 1.9 and the solubility at 24 h ([1]; water, 37 °C, water, thermodynamic from solid, H2O, 24 hours, 37° C., read-out: S: solubility) was 50 µg/mL. The “Ave. Purity (area %)” value ([2]; 40° C./75% RH (open), 1 day) was 94.8 area %, the “Ave. Purity (area %)” value ([2]; 40° C./75% RH (open), 3 days) was 94.7 area % and the “Ave. Purity (area %)” value ([2]; Ambient condition (open), 1 day) was 94.8 area %. For the same compound, the “Ave. Purity (area %)” value ([2]; Ambient condition (open), 3 days) was 94.8 area %, the “Ave. Purity (area %)” value ([2]; Initial) was 94.5 area % and the “Chemical stability at solid state, in words” value ([2]; ambient condition or 40° C./75% RH, 1 day and 3 days) was “better chemical stability”. For the same compound, the “Purity (% area)” value ([3]; pH 1.8 (SGF), Initial) was 100.00 % area, the pH ([3]; pH 1.8 (SGF), Initial) was 1.8 and the “Purity (% area)” value ([3]; pH 1.8 (SGF), RT, 6 hours) was 100.00 % area. The “Purity vs. Initial (%)” value ([3]; pH 1.8 (SGF), RT, 6 hours) was 100.0%, the pH ([3]; pH 1.8 (SGF), RT, 6 hours) was 1.8 and the “Purity (% area)” value ([3]; pH 1.8 (SGF), RT, 1 day) was 100.00 % area. For the same compound, the “Purity vs. Initial (%)” value ([3]; pH 1.8 (SGF), RT, 1 day) was 100.0%, the pH ([3]; pH 1.8 (SGF), RT, 1 day) was 1.8 and the “Purity (% area)” value ([3]; pH 1.8 (SGF), RT, 5 days) was 97.40 % area. For the same compound, the “Purity vs. Initial (%)” value ([3]; pH 1.8 (SGF), RT, 5 days) was 97.4%, the pH ([3]; pH 1.8 (SGF), RT, 5 days) was 1.8 and the “Purity (% area)” value [3, 4] was 97.70 % area. The pH [3, 4] was 8.1, the “Purity (% area)” value [3, 5] was 96.92 % area and the “Purity vs. Initial (%)” value [3, 5] was 99.2%. For the same compound, the pH [3, 5] was 8.0, the “Purity (% area)” value [3, 6] was 96.07 % area and the “Purity vs. Initial (%)” value [3, 6] was 98.3%. For the same compound, the pH [3, 6] was 8.0, the “Purity (% area)” value [3, 7] was 94.34 % area and the “Purity vs. Initial (%)” value [3, 7] was 96.6%. The pH [3, 7] was 8.0, the “Stability of the pH 1.8 solution, in words” value ([3]; SGF pH 1.8, RT, after 1 day) was “No significant degradation” and the “Stability of the pH 8.0 solution, in words” value ([3]; pH 8.0 buffer, RT) was “decreased slightly”.
